# Data: US20250145575A1, “MACROMOLECULE-SUPPORTED 8-SULFONYL-BENZAZEPINE COMPOUNDS AND THEIR USES” (BOLT BIOTHERAPEUTICS, INC., priority 2022, published 2025)
# Key:
# human TLR7 = biological target: T1, human TLR7 (Homo sapiens, UniProt Q9NYK1); test: HEK293 NFKB reporter assay, human TLR7; format: cell-based; conditions: HEK293 reporter cells expressing human TLR7; read-out: HEK293 hTLR7 EC50
# T1 construct: host or cells: HEK293 reporter cells
# T1 sequence (Q9NYK1 27-1049): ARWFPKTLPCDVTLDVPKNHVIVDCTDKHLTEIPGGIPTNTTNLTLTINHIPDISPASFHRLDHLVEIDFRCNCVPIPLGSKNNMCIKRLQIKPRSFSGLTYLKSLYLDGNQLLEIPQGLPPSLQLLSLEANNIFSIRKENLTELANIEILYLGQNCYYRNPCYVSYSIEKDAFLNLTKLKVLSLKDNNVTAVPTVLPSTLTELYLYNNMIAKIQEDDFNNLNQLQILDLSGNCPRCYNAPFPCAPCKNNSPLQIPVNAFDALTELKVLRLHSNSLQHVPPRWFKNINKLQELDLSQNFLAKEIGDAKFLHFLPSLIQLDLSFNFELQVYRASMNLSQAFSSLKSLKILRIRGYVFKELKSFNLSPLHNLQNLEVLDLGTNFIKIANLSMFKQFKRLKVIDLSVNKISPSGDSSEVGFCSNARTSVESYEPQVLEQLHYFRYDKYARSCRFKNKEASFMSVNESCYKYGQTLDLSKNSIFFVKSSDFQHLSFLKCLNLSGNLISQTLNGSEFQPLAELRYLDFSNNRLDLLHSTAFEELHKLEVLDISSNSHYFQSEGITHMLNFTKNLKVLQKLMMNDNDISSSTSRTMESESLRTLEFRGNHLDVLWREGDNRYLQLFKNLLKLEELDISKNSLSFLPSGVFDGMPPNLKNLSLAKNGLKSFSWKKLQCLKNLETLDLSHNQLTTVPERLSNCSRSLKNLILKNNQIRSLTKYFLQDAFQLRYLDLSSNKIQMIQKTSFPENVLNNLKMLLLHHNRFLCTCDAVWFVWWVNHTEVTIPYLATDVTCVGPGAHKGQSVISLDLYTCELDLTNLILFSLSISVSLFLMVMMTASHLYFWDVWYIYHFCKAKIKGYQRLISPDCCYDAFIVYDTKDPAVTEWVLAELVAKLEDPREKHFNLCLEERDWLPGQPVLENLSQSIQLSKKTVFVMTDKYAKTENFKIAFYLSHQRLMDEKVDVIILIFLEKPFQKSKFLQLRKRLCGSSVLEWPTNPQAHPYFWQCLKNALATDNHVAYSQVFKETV
# Experimental: (§1) Exemplary 8-sulfonyl-2-aminobenzazepine compounds (8SO2Bz) of the invention were synthesized, purified, and characterized by mass spectrometry and shown to have the expected mass. Additional experimental procedures are found in the Examples. Activity against HEK293 NFKB reporter cells expressing human TLR7 or human TLR8 was measured according to Example 202.
# (§2) Example 202 HEK Reporter Assay
# (§3) HEK293 reporter cells expressing human TLR7 or human TLR8 were purchased from Invivogen and vendor protocols were followed for cellular propagation and experimentation. Briefly, cells were grown to 80-85% confluence at 5% CO2 in DMEM supplemented with 10% FBS, Zeocin, and Blasticidin. Cells were then seeded in 96-well flat plates at 4×10^4 cells/well with substrate containing HEK detection medium and immunostimulatory molecules (MSC). Activity was measured using a plate reader at 620-655 nm wavelength.
# human TLR8 = biological target: T2, human TLR8 (Homo sapiens, UniProt Q9NR97); test: HEK293 NFKB reporter assay, human TLR8; format: cell-based; conditions: HEK293 reporter cells expressing human TLR8; read-out: HEK293 hTLR8 EC50
# T2 construct: host or cells: HEK293 reporter cells
# T2 sequence (Q9NR97 27-1041): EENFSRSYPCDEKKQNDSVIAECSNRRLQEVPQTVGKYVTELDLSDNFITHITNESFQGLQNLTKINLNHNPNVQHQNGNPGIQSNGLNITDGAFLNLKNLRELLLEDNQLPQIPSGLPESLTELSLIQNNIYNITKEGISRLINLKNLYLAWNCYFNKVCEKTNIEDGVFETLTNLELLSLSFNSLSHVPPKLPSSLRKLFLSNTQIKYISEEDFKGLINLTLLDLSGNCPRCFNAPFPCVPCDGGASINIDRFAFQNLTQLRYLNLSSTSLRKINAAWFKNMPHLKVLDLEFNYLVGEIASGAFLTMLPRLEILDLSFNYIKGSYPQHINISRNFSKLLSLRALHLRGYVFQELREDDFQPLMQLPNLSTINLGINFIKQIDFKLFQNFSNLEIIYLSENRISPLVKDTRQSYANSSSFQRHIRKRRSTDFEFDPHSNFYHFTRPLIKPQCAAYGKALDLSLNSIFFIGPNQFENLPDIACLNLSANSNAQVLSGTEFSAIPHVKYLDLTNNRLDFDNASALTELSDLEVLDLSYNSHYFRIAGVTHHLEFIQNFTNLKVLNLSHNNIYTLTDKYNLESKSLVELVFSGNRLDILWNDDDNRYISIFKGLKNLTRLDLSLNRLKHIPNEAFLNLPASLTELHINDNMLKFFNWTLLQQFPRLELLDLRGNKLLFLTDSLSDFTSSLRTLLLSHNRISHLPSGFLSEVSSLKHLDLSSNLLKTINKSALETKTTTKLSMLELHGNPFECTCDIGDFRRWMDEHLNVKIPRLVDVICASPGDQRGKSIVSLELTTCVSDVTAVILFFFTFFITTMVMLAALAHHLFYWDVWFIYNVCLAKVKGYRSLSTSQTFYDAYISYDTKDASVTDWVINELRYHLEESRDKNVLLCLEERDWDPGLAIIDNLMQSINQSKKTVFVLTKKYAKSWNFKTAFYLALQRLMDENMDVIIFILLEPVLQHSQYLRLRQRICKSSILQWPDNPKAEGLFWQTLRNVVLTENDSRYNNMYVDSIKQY
# Experimental: as §1, §2, §3
Compound,EC50 (human TLR7),EC50 (human TLR8)
CCCN(OCC)C(=O)C1=Cc2ccc(S(=O)(=O)c3ccc(C(=O)OC)cc3)cc2N=C(N)C1 [8SO2Bz-1],> 9000 nM,
CCCN(OCCCC(=O)OC(C)(C)C)C(=O)C1=Cc2ccc(S(=O)(=O)N(C)C)cc2N=C(N)C1 [8SO2Bz-2],395 nM,< 2.3 nM
CCCN(OCC)C(=O)C1=Cc2ccc(S(=O)(=O)NC)cc2N=C(N)C1 [8SO2Bz-3],> 5000 nM,
